Experimental data published in patent US5942489A, “HGH-RH(1-29)NH2 analogues having antagonistic activity” (The Administrators of the Tulane Educational Fund, priority 1996, dated 1999).
Where a SMILES comes first, the peptide text is derived from it. Bridges are numbered along the chain shown (N, C = ends). [ ]: non-standard residue; d: D form. The star is where a group is joined. Phe(4-Cl) = N[C@@H](Cc1ccc(Cl)cc1)C(=O)O; 2Nal = N[C@@H](Cc1ccc2ccccc2c1)C(=O)O; Cit = NC(=O)NCCC[C@H](N)C(=O)O; Agmatine = N=C(N)NCCCCN*; Nle = CCCC[C@H](N)C(=O)O; Orn = NCCC[C@H](N)C(=O)O; Abu = CC[C@H](N)C(=O)O; PhAc = O=C(Cc1ccccc1)*

How the values were obtained:
[1] = biological target: T1, rat pituitary GH-RH receptors (Rattus norvegicus, UniProt Q02644); experiment: GH-RH radioreceptor binding assay, competition with labelled [His1,Nle27]hGH-RH(1-32)NH2; conditions: rat anterior pituitary membrane homogenates; read-out: Ki values, K
T1 construct: from tissue; host or cells: anterior pituitary of male Sprague-Dawley rats, crude membranes
T1 sequence (Q02644 23-464): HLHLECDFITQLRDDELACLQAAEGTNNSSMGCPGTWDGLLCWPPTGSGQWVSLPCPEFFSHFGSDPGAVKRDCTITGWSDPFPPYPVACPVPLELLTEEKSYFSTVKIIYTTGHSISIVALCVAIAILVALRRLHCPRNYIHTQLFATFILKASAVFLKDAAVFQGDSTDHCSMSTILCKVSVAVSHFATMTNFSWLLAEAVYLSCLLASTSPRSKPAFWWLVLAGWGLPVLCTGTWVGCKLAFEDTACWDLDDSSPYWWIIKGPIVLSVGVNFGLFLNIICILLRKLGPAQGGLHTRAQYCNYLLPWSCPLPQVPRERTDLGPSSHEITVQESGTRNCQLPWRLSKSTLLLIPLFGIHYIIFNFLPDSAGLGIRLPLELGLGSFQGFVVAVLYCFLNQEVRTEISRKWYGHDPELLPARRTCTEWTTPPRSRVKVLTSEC
Experimental: GH-RH Binding Assay. A sensitive radioreceptor binding assay was developed to determine the binding characteristics of the antagonists of GH-RH (G. Halmos, A. V. Schally et al., Receptor 3, 87-97, 1993), hereby incorporated by reference. The assay is based on binding of labelled [His^1, Nle^27 ]hGH-RH(1-32)NH2 to rat anterior pituitary membrane homogenates. Iodinated derivatives of [His^1, Nle^27 ]hGH-RH(1-32)NH2 are prepared by the chloramine-T method (F. C. Greenwood et al., Biochemistry 89:114-123, 1963), hereby incorporated by reference. Pituitaries from male Sprague-Dawley rats (250-300 g) are used to prepare crude membranes. For saturation binding analyses, membrane homogenates are incubated with at least 6 concentrations of [His^1,125I-Tyr^10,Nle^27 ]hGH-RH(1-32)NH2, ranging from 0.005 to 0.35 nM in the presence or absence of excess unlabelled peptide (1 μM).
The pellet is counted for radioactivity in a γ-counter. The affinities of the antagonist peptides tested to rat pituitary GH-RH receptors are determined in competitive binding experiments. The final binding affinities are estimated by Ki (dissociation constant of the inhibitor-receptor complex) and are determined by the Ligand PC computer program of Munson and Rodbard as modified by McPherson. Relative affinities compared to [Ac-Tyr^1, D-Arg^2 ]hGH-RH(1-29)NH2, the Standard antagonist, are calculated as the ratio of Ki of the tested GH-RH antagonist to the Ki of the Standard antagonist.

[2] = tested on: GH release induced by 1 nM hGH-RH(1-29)NH2 in superfused rat pituitary cells; experiment: Inhibition of hGH-RH(1-29)NH2-induced GH release in superfused rat pituitary system; assay type: cell-based; conditions: 30 nM peptide; for Inhibition of GH release (%) 0 min: 0 min response; for Inhibition of GH release (%) 30 min: 30 min response; for Inhibition of GH release (%) 60 min: 60 min response; for Inhibition of GH release (%) 90 min: 90 min response; for Inhibition of GH release (%) 120 min: 120 min response
Experimental: Superfused Rat Pituitary System. The analogues were tested in vitro in a test described earlier (S. Vigh and A. V. Schally, Peptides 5:241-[…], 1984) with modification (Z. Rekasi and A. V. Schally, P. N. A. S. 90:2146-2149, 1993).
Briefly, the cells are preincubated with peptides for 9 minutes (3 mL) at various concentrations. Immediately after the incubation, 1 nM hGH-RH(1-29)NH2 is administered for 3 minutes (1 mL) [0 minute response]. To check the duration of the antagonistic effect of the analogue, 1 nM hGH-RH(1-29)NH2 is applied 30, 60, 90, and 120 minutes later for 3 minutes [30, 60, 90, 120 min responses]. Net integral values of the GH responses are evaluated. GH responses are compared to and expressed as percent of the original GH response induced by 1 nM GH-RH(1-29)NH2. The effect of the new antagonists are compared to that of [Ac-Tyr^1,D-Arg^2 ]hGH-RH(1-29)NH2, the "Standard antagonist".
Growth Hormone Radio-immunoassay. Rat GH levels in aliquots of undiluted and diluted superfusion samples were measured by double-antibody radioimmunoassay using materials supplied by the National Hormone and Pituitary Program, Baltimore, Md. The results of RIA were analyzed with a computer program developed in our institute (V. Csernus and A. V. Schally, Harwood Academic (Greenstein, B. C. ed., London, pp. 71-109, 1991), hereby incorporated by reference. Inter-assay variation was less than 15% and intra-assay variation was less than 10%.

| Compound | Ki [1] | Inhibition of GH release (%) 0 min [2] | Inhibition of GH release (%) 30 min [2] | Inhibition of GH release (%) 60 min [2] | Inhibition of GH release (%) 90 min [2] | Inhibition of GH release (%) 120 min [2] |
| --- | --- | --- | --- | --- | --- | --- |
| CCCC[C@H](NC(=O)[C@@H](NC(=O)[C@H](CC(=O)O)NC(=O)[C@H](CCC(N)=O)NC(=O)[C@H](CC(C)C)NC(=O)[C@H](CC(C)C)NC(=O)[C@H](CCCCN)NC(=O)[C@H](CCCNC(=N)N)NC(=O)[C@H](C)NC(=O)[C@H](CO)NC(=O)[C@H](CC(C)C)NC(=O)[C@H](CCC(N)=O)NC(=O)[C@H](CC)NC(=O)[C@H](CC(C)C)NC(=O)[C@@H](NC(=O)[C@H](CCCCN)NC(=O)[C@H](CCCNC(=N)N)NC(=O)[C@H](Cc1ccc(O)cc1)NC(=O)[C@H](CO)NC(=O)[C@H](CC)NC(=O)[C@@H](NC(=O)[C@H](Cc1ccc(Cl)cc1)NC(=O)[C@@H](NC(=O)[C@H](C)NC(=O)[C@H](CC(=O)O)NC(=O)[C@@H](CCCNC(=N)N)NC(=O)[C@H](Cc1ccc(O)cc1)NC(=O)Cc1ccccc1)[C@@H](C)CC)[C@@H](C)O)C(C)C)[C@@H](C)CC)C(=O)N[C@@H](CO)C(=O)N[C@@H](CCCNC(N)=O)C(N)=O [Peptide 3, [PhAc^0,D-Arg^2,Phe(pCl)^6,Abu^8,15,Nle^27,Cit^29]hGH-RH(1-29)-NH2] (PhAc-Y[dR]DAI[Phe(4-Cl)]T[Abu]SYRKVL[Abu]QLSARKLLQDI[Nle]S[Cit]-NH2) | 0.301 ± 0.14 nM |  |  |  |  |  |
| CCCC[C@H](NC(=O)[C@@H](NC(=O)[C@H](CC(=O)O)NC(=O)[C@H](CCC(N)=O)NC(=O)[C@H](CC(C)C)NC(=O)[C@H](CC(C)C)NC(=O)[C@H](CCCCN)NC(=O)[C@H](CCCNC(=N)N)NC(=O)[C@H](C)NC(=O)[C@H](CO)NC(=O)[C@H](CC(C)C)NC(=O)[C@H](CCC(N)=O)NC(=O)[C@H](C)NC(=O)[C@H](CC(C)C)NC(=O)[C@@H](NC(=O)[C@H](CCCCN)NC(=O)[C@H](CCCNC(=N)N)NC(=O)[C@H](Cc1ccc(O)cc1)NC(=O)[C@H](CO)NC(=O)[C@H](CC(N)=O)NC(=O)[C@@H](NC(=O)[C@H](Cc1ccc(Cl)cc1)NC(=O)[C@@H](NC(=O)[C@H](C)NC(=O)[C@H](CC(=O)O)NC(=O)[C@@H](CCCNC(=N)N)NC(=O)[C@H](Cc1ccc(O)cc1)NC(=O)Cc1ccccc1)[C@@H](C)CC)[C@@H](C)O)C(C)C)[C@@H](C)CC)C(=O)N[C@@H](CC(=O)O)C(=O)NCCCCNC(=N)N [Peptide 5, [PhAc^0,D-Arg^2,Phe(pCl)^6,Ala^15,Nle^27,Asp^28]hGH-RH(1-28)Agm] (PhAc-Y[dR]DAI[Phe(4-Cl)]TNSYRKVLAQLSARKLLQDI[Nle]D-Agmatine) | 0.096 nM |  |  |  |  |  |
| CCCC[C@H](NC(=O)[C@@H](NC(=O)[C@H](CC(=O)O)NC(=O)[C@H](CCC(N)=O)NC(=O)[C@H](CC(C)C)NC(=O)[C@H](CC(C)C)NC(=O)[C@H](CCCCN)NC(=O)[C@H](CCCNC(=N)N)NC(=O)[C@H](C)NC(=O)[C@H](CO)NC(=O)[C@H](CC(C)C)NC(=O)[C@H](CCC(N)=O)NC(=O)[C@H](CC)NC(=O)[C@H](CC(C)C)NC(=O)[C@@H](NC(=O)[C@H](CCCCN)NC(=O)[C@H](CCCNC(=N)N)NC(=O)[C@H](Cc1ccc(O)cc1)NC(=O)[C@H](CO)NC(=O)[C@H](CC(N)=O)NC(=O)[C@@H](NC(=O)[C@H](Cc1ccc(Cl)cc1)NC(=O)[C@@H](NC(=O)[C@H](C)NC(=O)[C@H](CC(=O)O)NC(=O)[C@@H](CCCNC(=N)N)NC(=O)[C@H](Cc1ccc(O)cc1)NC(=O)Cc1ccccc1)[C@@H](C)CC)[C@@H](C)O)C(C)C)[C@@H](C)CC)C(=O)N[C@@H](CO)C(=O)NCCCCNC(=N)N [Peptide 8, [PhAc^0,D-Arg^2,Phe(pCl)^6,Abu^15,Nle^27]hGH-RH(1-28)Agm] (PhAc-Y[dR]DAI[Phe(4-Cl)]TNSYRKVL[Abu]QLSARKLLQDI[Nle]S-Agmatine) | 0.0159 ± 0.01 nM |  |  |  |  |  |
| CCCC[C@H](NC(=O)[C@@H](NC(=O)[C@H](CC(=O)O)NC(=O)[C@H](CCC(N)=O)NC(=O)[C@H](CC(C)C)NC(=O)[C@H](CC(C)C)NC(=O)[C@H](CCCCN)NC(=O)[C@H](CCCNC(=N)N)NC(=O)[C@H](C)NC(=O)[C@H](CO)NC(=O)[C@H](CC(C)C)NC(=O)[C@H](CCC(N)=O)NC(=O)[C@H](C)NC(=O)[C@H](CC(C)C)NC(=O)[C@@H](NC(=O)[C@H](CCCCN)NC(=O)[C@H](CCCNC(=N)N)NC(=O)[C@H](Cc1ccc(O)cc1)NC(=O)[C@H](CO)NC(=O)[C@H](CC)NC(=O)[C@@H](NC(=O)[C@H](Cc1ccc2ccccc2c1)NC(=O)[C@@H](NC(=O)[C@H](C)NC(=O)[C@H](CC(=O)O)NC(=O)[C@@H](CCCNC(=N)N)NC(=O)[C@H](Cc1ccc(O)cc1)NC(=O)Cc1ccccc1)[C@@H](C)CC)[C@@H](C)O)C(C)C)[C@@H](C)CC)C(=O)N[C@@H](CC)C(=O)N[C@@H](CCCNC(=N)N)C(N)=O [Peptide 12, [PhAc^0,D-Arg^2,Nal^6,Abu^8,28,Ala^15,Nle^27]hGH-RH(1-29)NH2] (PhAc-Y[dR]DAI[2Nal]T[Abu]SYRKVLAQLSARKLLQDI[Nle][Abu]R-NH2) |  | 87.0% | 61.0% | 37.0% | 34.0% | 41.0% |
| CCCC[C@@H]1NC(=O)[C@H]([C@@H](C)CC)NC(=O)[C@H](NC(=O)[C@H](CCC(N)=O)NC(=O)[C@H](CC(C)C)NC(=O)[C@H](CC(C)C)NC(=O)[C@H](CCCCN)NC(=O)[C@H](CCCNC(=N)N)NC(=O)[C@H](C)NC(=O)[C@H](CO)NC(=O)[C@H](CC(C)C)NC(=O)[C@H](CCC(N)=O)NC(=O)[C@H](C)NC(=O)[C@H](CC(C)C)NC(=O)[C@@H](NC(=O)[C@H](CCCCN)NC(=O)[C@H](CCCNC(=N)N)NC(=O)[C@H](Cc2ccc(O)cc2)NC(=O)[C@H](CO)NC(=O)[C@H](CC)NC(=O)[C@@H](NC(=O)[C@H](Cc2ccc3ccccc3c2)NC(=O)[C@@H](NC(=O)[C@H](C)NC(=O)[C@H](CC(=O)O)NC(=O)[C@@H](CCCNC(=N)N)NC(=O)[C@H](Cc2ccc(O)cc2)NC(=O)Cc2ccccc2)[C@@H](C)CC)[C@@H](C)O)C(C)C)CC(=O)NCCC[C@@H](C(N)=O)NC(=O)[C@H](CO)NC1=O [Peptide 20, cyclo^25,29 [PhAc^0,D-Arg^2,Nal^6,Abu^8,Ala^15,D-Asp^25,Nle^27,Orn^29]hGH-RH(1-29)NH2] (PhAc-Y[dR]DAI[2Nal]T[Abu]SYRKVLAQLSARKLLQ[dD]I[Nle]S[Orn]-NH2; lactam 25-29) |  | 11.0% | 0.0% | 0.0% | 13.0% |  |
| [PhAc^0,Tyr(Me),D-Arg^2,Phe(pCl)^6,Ala^15,Nle^27 ]hGH-RH(1-29)-NH2 [Peptide 10] |  | 84.8% | 35.2% | 38.2% | 29.8% | 33.8% |
